From patent US10603701B2, “Bioremediation of 1,4-dioxane and chlorinated aliphatic hydrocarbons by propanotrophic bacteria” (New Jersey Institute of Technology, priority 2018, dated 2020)

Experiments:
Azoarcus sp. DD4 [1] = experiment: Biodegradation of concurrent dioxane and 1,1-DCE by DD4 in microcosms; type: cell-based; conditions: for effect of presence on utilization of 1-propanol and proliferation of DD4: 1-propanol as primary substrate
Experimental: Biodegradation of concurrent dioxane and 1,1-DCE by Azoarcus sp. DD4. To evaluate the performance of DD4 in removing dioxane and 1,1-DCE when both compounds are concurrently present, microcosms were prepared with DD4 inoculum in NMS medium and dosed with dioxane and 1,1-DCE. Two primary substrates were used, including propane and 1-propanol.

Mycobacterium sp. DT1 = experiment: Concurrent biodegradation of dioxane and TCE by DT1 in simulated microcosms; type: cell-based
Experimental: Concurrent biodegradation of dioxane and TCE by Mycobacterium sp. DT1. To evaluate the performance of DT1 in the removal of dioxane and TCE when both compounds are concurrently present, simulated microcosms were prepared with DT1 inoculum in BSM medium and dosed with dioxane and TCE. Propane was used as the primary substrate. […] After a short lag time (1 d), all the substrates, i.e. propane, dioxane, and TCE, were degraded synchronically. At the end of day 2, the initial 71.1, 20.2, and 2.15 mg/L of propane, dioxane, and TCE were degraded to 25.8, 11.3, and 1.59 mg/L, respectively. TCE was degraded to below the MDL of the GC-FID methods employed (i.e., 0.01 mg/L), and 85% of dioxane was removed from the simulated microcosm after 4 days incubation.

Azoarcus sp. DD4 [2] = experiment: Inhibition of 1,1-DCE on dioxane degradation by DD4 resting cells; type: cell-based; conditions: dioxane 20.9±0.3 mg/L and 1,1-DCE 5.0±0.4 mg/L, 24 hr
Experimental: Inhibition of 1,1-DCE on dioxane degradation by Azoarcus sp. DD4. Though DD4 can degrade both dioxane and 1,1-DCE, the effect(s) of 1,1-DCE on dioxane biodegradation was investigated. DD4 cells were harvested at the exponential growth phase and washed by NMS medium three times. Three treatments were prepared with the resting cells by the exposure of dioxane (19.7±1.2 mg/L), 1,1-DCE (5.5±0.1 mg/L), and both dioxane (20.9±0.3 mg/L) and 1,1-DCE (5.0±0.4 mg/L). Concentrations of 1,1-DCE and dioxane were monitored using GC at selected time intervals over 24 hr. Abiotic controls were treated identically. All experiments were performed in duplicate vials. […] Thus, it is very plausible that DD4 can resume its capability of degrading dioxane once 1,1-DCE is depleted by DD4.

Azoarcus sp. DD4 [3] = experiment: Propane and dioxane degradation by DD4 with or without ATU; type: cell-based; conditions: propane as primary substrate; dioxane degradation thus prolonged
Experimental: Allylthiourea (ATU) was reported to inhibit the particulate MOs involved in nitrification and alkane degradation in various bacteria. To exploit the effects ofprm-deletion on the propane and dioxane degradation and further to distinguish the soluble versus particulate MO category the DD4 dioxane degrader belongs to, the wild-type and prm-deleted DD4 strains were cultured with and without the presence of ATU using propane as a primary substrate to cometabolize dioxane. Duplicate abiotic controls were prepared in parallel. The propane and dioxane depletion were monitored over time by GC analysis. Now referring to FIGS. 11a and 11b, prmADBC is only partially correlated with the propane degradation but not associated with the dioxane cometabolism.

Azoarcus sp. DD4 [4] = conditions: propane as substrate
Experimental: DD4's adaptability to pH, salinity and temperature. To identify its optimum growth conditions, DD4 was cultured with propane as the substrate under different pHs, temperatures, and salinities. The pHs of NMS medium were adjusted to 4.0, 5.0, 6.0, 7.0, 8.0, 9.0 and 10.0 with appropriate amount of 1 M HCl or 1 M NaOH. The NMS mediums were cultured under 10° C., 15° C., 20° C., 25° C., 30° C., 35° C., and 40° C. The salinities of NMS medium were adjusted to 0%, 0.5%, 1.0%, 1.5%, 2.0%, 2.5%, 3.0%, and 3.5% (w/v) with NaCl. 6 mL of propane (equivalent to 6% of the head space volume) was injected into the sealed bottles in all these assays. DD4 was inoculated at the initial concentration of 0.05 measured as OD600 and cultured under 30° C., 150 rpm for 72 h while shaking. The optical density (OD) values of bacterial suspensions were determined with spectrophotometer under 600 nm.

Azoarcus sp. DD4 [5] = experiment: Inhibition of dioxane, 1,1-DCE and propane degradation by acetylene (DD4 resting cells); type: cell-based; conditions: resting cells pre-incubated with acetylene 10% headspace volume, 20 minutes
Experimental: Inhibition of dioxane, 1,1-DCE, and propane degradation by acetylene. Acetylene is an irreversible suicide substrate that inactivates bacterial monooxygenases (MOs). Prior S. and Dalton H, 1985. Acetylene as a suicide substrate and active site probe for methane monooxygenase from Methylococcus capsulatus (Bath). FEMS Microbiology Letters. 29, 105-109. […] After being washed with NMS three times, resting cells were pre-incubated with acetylene (10% headspace volume) for 20 minutes prior to the amendment of dioxane, 1,1-DCE, or propane. The effect of the inhibitor acetylene was studied by monitoring the depletion of dioxane, 1,1-DCE, and propane over time in the presence or absence of acetylene. Duplicate abiotic controls were prepared in parallel. The propane and dioxane depletion were monitored over time by GC analysis.

[6] = tested on: Psuedonocardia dioxanivorans CB1190; conditions: previous studies; cited from earlier work

## C1COCCO1 [dioxane, 1,4-dioxane]
Azoarcus sp. DD4 [1]
  effect of presence on utilization of 1-propanol and proliferation of DD4: did not inhibit
Mycobacterium sp. DT1; initial 20.2 mg/L
  dioxane removed after 4 days incubation: 85%
Azoarcus sp. DD4 [2]
  effect on 1,1-DCE degradation by DD4 resting cells: no inhibitory effects

## ClC=C(Cl)Cl [TCE, trichloroethene]
Mycobacterium sp. DT1; DT1, BSM, propane as primary substrate
  effect of presence on degradation of dioxane or consumption of propane for growth: no significant inhibition

## C=CCNC(N)=S [ATU, Allylthiourea]
Azoarcus sp. DD4 [3]
  effect on propane consumption: partially inhibit

## [Cl-].[Na+] [NaCl]
Azoarcus sp. DD4 [4]; 72 h, OD600, w/v
  optimal growth parameter, NaCl: 0-1%
Azoarcus sp. DD4 [4]; w/v
  NaCl concentration under which DD4 could survive and maintain growth and cometabolic activity toward dioxane: 0.0-3.0%

## C#C [acetylene]
Azoarcus sp. DD4 [5]
  effect of exposure on degradation of propane, 1,1-DCE and dioxane: completely prohibited

## C=C(Cl)Cl [1,1-DCE, 1,1-dichloroethylene]
Azoarcus sp. DD4 [1]
  effect of presence on utilization of 1-propanol and proliferation of DD4: did not inhibit
Azoarcus sp. DD4 [1]; propane as primary substrate, NMS microcosm
  effect of presence on degradation of dioxane and consumption of propane for growth: significantly inhibited
[6]
  effect of exposure on dioxane degradation by CB1190: significantly prohibit
Azoarcus sp. DD4 [2]
  effect of presence on dioxane degradation by DD4 resting cells: greatly inhibited
